# Results published in patent publication US9511072B2, “Methods of modulating cell proliferation and cyst formation in polycystic kidney and liver diseases” (The Medical College of Wisconsin, Inc., priority 2006, dated 2016).
# Entries after “also recorded” stand apart in the source; their conditions may differ.
# Key:
# [1] = tested on: 20-HETE synthesis (cytochrome P450 4A and 4F isoforms); experiment: 20-HETE production by renal microsomes of BPK mice dosed with HET-0016; format: in vivo, mouse
# Experimental: Microsomes were isolated from the cystic BPK and non-cystic Balb/C mouse kidneys as described by Ito O et al. (Am J Physiol Regul Integr Comp Physiol, 280:R822-30, 2001). For the BPK and Balb/C cells, protein lysates were harvested by homogenization and subsequent sonication of the cell pellets. For the 20-HETE production assay, the isolated protein (500 μg) was incubated in 0.5 mL of 100 mM potassium phosphate buffer containing 40 μM cold arachidonic acid and 2 mM NADPH. In some samples, the 20-HETE synthesis inhibitor, HET-0016, was added at a concentration of 1 μM. The reaction was incubated at 37° C. and equilibrated with 100% O2 for 30 minutes. The reaction was stopped by acidification to pH 3.5 with 1M formic acid. The lipids were extracted in the presence of 20-HETE-d6 (2 ng) using 3:1 ethyl acetate:water and dried down under nitrogen. The samples were reconstituted in 1:1 methanol:water and the production of 20-HETE was measured using a liquid chromatograph-triple quadrupole mass spectrometer (ABI 3000, Applied Biosystems, Inc., Foster City, Calif.) as described in Williams J M et al. Hypertension, 49:687-94, 2007.
# To further examine the biological role of 20-HETE in the epithelial cell proliferation, post-natal day 7, 10 or 21 day old BPK mice were treated with an intraperitoneal injection of vehicle or HET-0016 (10 mg/kg/day) 2 hours prior to sacrifice at which point the kidneys were removed for measurement of 20-HETE synthesis.
# [2] = tested on: 20-HETE; conditions: cited from earlier work
# [3] = tested on: EGFR phosphorylation in BPK renal tissues; experiment: Western blot of EGFR phosphorylation in BPK renal tissue after chronic treatment; format: in vivo, mouse; conditions: BPK mice, ip 10 mg/Kg/day, PN-7 to PN-20, medulla region
# Description: The BPK model, a murine model of ARPKD, arose as a spontaneous mutation in an inbred colony of Balb/c mice and has been extensively characterized (Nauta J et al. Pediatr Nephrol 1993, 7:163-72; Nauta J et al. Pediatr Res 1995, 37:755-63; and Sweeney W E et al. Kidney Int 2003, 64:1310-9). Affected animals die at postnatal day (PN) 24 (average) with a range of PN-21 to PN-29 days. Extrarenal manifestations include biliary proliferation and ductal ectasia (BDE). Balb/c controls were utilized in all experiments. All animal experiments were conducted in accordance with policies of the NIH Guide for the Care and Use of Laboratory Animals and the Institutional Animal Care and Use Committee (IACUC) of the Medical College of Wisconsin. Western blot analysis of EGFR phosphorylation was conducted for BPK renal tissues following 13 days (PN-7 to PN-20) of treatment with vehicle (ip) (lane A of FIG. 10) or HET0016 (ip, 10 mg/Kg/day) (lane B or FIG. 10). […] The reduced phosphorylation of the EGFR directly correlates with the reduced size of the HET0016-treated cystic kidney, reduced KW/BW ratio, and improved morphology of the HET0016-treated cystic kidney observed in the immunohistochemistry study described above in Example 3.
# [4] = tested on: PCK rats; experiment: Chronic HET0016 treatment of PCK rats (KW/BW, LW/BW, morphology); format: in vivo, rat
# Experimental: PCK rats, an orthologous model of human ARPKD (PKHD1), received daily IP injections of vehicle or HET0016 at 10 mg/kg/daily, starting at postnatal day 7 (PN-7). Animals were treated daily from PN-7 to PN-55 (48 doses). Kidney and liver were harvested at PN-55.
# [5] = tested on: cystic BPK cells; experiment: BrdU incorporation in cystic BPK cells; format: cell-based, mouse; conditions: 36 hours, vehicle 118
# Experimental: To determine the level of proliferation in the cystic BPK cells, chemically dissimilar inhibitors of cytochrome P450 4A (CYP4A) and 4F (CYP4F) inhibitors, specifically HET-0016 (10 and 20 μM) and DDMS (10 μM), were incubated for 36 hours with the BPK cells. Three hours prior to the harvesting of the cells, 5-bromo-2′-deoxyuridine (BrdU) at a concentration of 30 μM was added to determine the level of cell cycle inhibition. The cells were subsequently methanol fixed and BrdU-positive cells were identified by immunohistology with biotinylated monoclonal anti-BrdU antibody (Zymed, South San Francisco, Calif.). Data were expressed as the percentage of BrdU-labeled cells per 500 counted cells.
# [6] = 10 mg/kg/daily IP, PN-7 to PN-55
# [7] = 10 mg/kg/day IP, PN-7 to PN-55, 10 mg/kg/day
substance,measurement,setting,value
N-hydroxy-N-(4-butyl-2-methylphenyl)-formamidine [HET0016],effect on other metabolites of arachidonic acid formed by the kidney,[1]; 10 mg/kg/day i.p.,no apparent inhibition
same,inhibition of the formation of 20-HETE,"[1]; 10 mg/kg/day i.p. 2 hours prior to sacrifice, renal microsomes",> 95%
same,production of 20-HETE,"[1]; 10 mg/kg/day i.p. 2 hours prior to sacrifice, renal microsomes, vehicle 1.06±0.33",0.04±0.02 pmoles/min/mg protein
same,20-HETE levels in vivo,[2],reduce 20-HETE levels in vivo
same,phosphorylation (activation) of EGFR in renal tissue,[3],reduced the phosphorylation (activation) of EGFR
same,BW,[4]; [6],93
same,KW (% BW),[4]; [6],0.97 % BW
same,LW (% BW),[4]; [6],4.3 % BW
same,decrease in KW/BW ratio,"[4]; 10 mg/kg/daily IP, vs vehicle",23%
same,decrease in LW/BW ratio,"[4]; 10 mg/kg/daily IP, vs vehicle",25%
same,decrease in total body weight,"[4]; 10 mg/kg/daily IP, vs vehicle",14%
same,kidney morphology: cysts and tubular epithelial proliferation,[4]; [7],dramatic reduction in size and number of cysts and tubular epithelial proliferation; also recorded: dramatic reduction in cyst size and tubular epithelial proliferation
same,liver morphology: biliary cysts and biliary epithelial proliferation,[4]; [7],dramatic reduction in size and number of cysts and reduced biliary epithelial proliferation; also recorded: dramatic reduction in the size and number of biliary cysts and in the proliferation of biliary epithelial cells
same,BrdU-positive cells per 500 total cells counted,[5]; 10 μM,52 BrdU(+) cells
same,BrdU-positive cells per 500 total cells counted,[5]; 20 μM,38 BrdU(+) cells
